According to PubChem BioAssay (NCI):
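In this assay, cells in 96-well plates receive the compound at five concentrations for 48 hours. Endpoints are linearly interpolated between the surrounding concentrations. TGI marks complete inhibition of growth.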

Experiments:
Assay in all cases: NCI tumour cell line growth inhibition, 48 h
[1] = system: SN12C renal
[2] = system: MDA-MB-231 breast
[3] = system: SK-OV-3 ovarian
[4] = system: IGROV1 ovarian
[5] = system: HCT-116 colon
[6] = system: SNB-19 CNS
[7] = system: K-562 leukemia
[8] = system: NCI-H226 lung
[9] = system: NCI-H23 lung
[10] = system: SK-MEL-5 melanoma
[11] = system: M14 melanoma
[12] = system: HL-60(TB) leukemia
[13] = system: EKVX NSCLC
[14] = system: MALME-3M melanoma
[15] = system: SNB-75 CNS
[16] = system: SF-539 CNS
[17] = system: NCI/ADR-RES ovarian
[18] = system: HS 578T breast
[19] = system: SR leukemia
[20] = system: MDA-MB-435
[21] = system: A549 NSCLC
[22] = system: TK-10 renal
[23] = system: 786-0 renal
[24] = system: ACHN renal
[25] = system: SK-MEL-2 melanoma
[26] = system: SW-620 colon
[27] = system: KM12 colon
[28] = system: UO-31 renal
[29] = system: RPMI-8226 leukemia
[30] = system: MDA-N
[31] = system: SK-MEL-28 melanoma
[32] = system: SF-295 CNS
[33] = system: OVCAR-4 ovarian
[34] = system: MCF7 breast
[35] = system: CAKI-1 renal
[36] = system: A498 renal
[37] = system: BT-549 breast
[38] = system: SF-268 CNS
[39] = system: OVCAR-5 ovarian
[40] = system: DU-145 prostate
[41] = system: PC-3 prostate
[42] = system: HOP-92 NSCLC
[43] = system: UACC-257 melanoma
[44] = system: LOX IMVI melanoma
[45] = system: COLO 205 colon
[46] = system: CCRF-CEM leukemia
[47] = system: T-47D breast
[48] = system: HOP-62 NSCLC
[49] = system: OVCAR-8 ovarian
[50] = system: U251 CNS
[51] = system: NCI-H460 lung
[52] = system: OVCAR-3 ovarian
[53] = system: RXF 393 renal
[54] = system: HCT-15 colon
[55] = system: HCC-2998 colon
[56] = system: UACC-62 melanoma
[57] = system: HT29 colon
[58] = system: MOLT-4 leukemia
[59] = system: NCI-H522 lung

`CCOC(=O)c1c2ccccc2n2c(=O)n(C)nnc12` gave a TGI [1] of over 100 µM, a TGI [2] of over 100 µM and a TGI [3] of over 100 µM. It also gave a TGI [4] of over 100 µM, a TGI [5] of over 100 µM and a TGI [6] of over 100 µM. For the same compound, the TGI [7] was over 100 µM, the TGI [8] was over 100 µM and the TGI [9] was over 100 µM. The TGI [10] was over 100 µM, the TGI [11] was over 100 µM and the TGI [12] was over 100 µM. For the same compound, the TGI [13] was over 100 µM, the TGI [14] was over 100 µM and the TGI [15] was over 100 µM. The TGI [16] was over 100 µM, the TGI [17] was over 100 µM and the TGI [18] was over 100 µM. It also gave a TGI [19] of over 90.7 µM, a TGI [20] of over 100 µM and a TGI [21] of over 100 µM. It also gave a TGI [22] of over 100 µM, a TGI [23] of over 100 µM and a TGI [24] of over 100 µM. It also gave a TGI [25] of over 100 µM, a TGI [26] of over 100 µM and a TGI [27] of over 100 µM. The TGI [28] was over 100 µM, the TGI [29] was over 100 µM and the TGI [30] was over 100 µM. For the same compound, the TGI [31] was over 100 µM, the TGI [32] was over 100 µM and the TGI [33] was over 100 µM. The TGI [34] was over 100 µM, the TGI [35] was over 100 µM and the TGI [36] was over 100 µM. For the same compound, the TGI [37] was over 100 µM, the TGI [38] was over 100 µM and the TGI [39] was over 100 µM. For the same compound, the TGI [40] was over 100 µM, the TGI [41] was over 100 µM and the TGI [42] was over 100 µM. The TGI [43] was over 100 µM, the TGI [44] was over 100 µM and the TGI [45] was over 100 µM. For the same compound, the TGI [46] was over 100 µM, the TGI [47] was over 100 µM and the TGI [48] was over 100 µM. The TGI [49] was over 100 µM, the TGI [50] was over 100 µM and the TGI [51] was over 100 µM. The TGI [52] was over 100 µM, the TGI [53] was 99.1 µM and the TGI [54] was over 100 µM. For the same compound, the TGI [55] was over 100 µM and the TGI [56] was over 100 µM.
`O=C(CCNC(=O)OCc1ccccc1)OCCCNC(=O)OCc1ccccc1` gave a TGI [1] of over 100 µM, a TGI [2] of over 100 µM and a TGI [3] of over 100 µM. It also gave a TGI [4] of over 100 µM, a TGI [5] of over 100 µM and a TGI [6] of over 100 µM. The TGI [7] was over 100 µM, the TGI [8] was over 100 µM and the TGI [9] was over 100 µM. It also gave a TGI [10] of over 100 µM, a TGI [11] of over 100 µM and a TGI [12] of over 100 µM. For the same compound, the TGI [14] was over 100 µM, the TGI [15] was over 100 µM and the TGI [16] was over 100 µM. For the same compound, the TGI [17] was over 100 µM, the TGI [18] was over 100 µM and the TGI [19] was over 100 µM. It also gave a TGI [20] of over 100 µM, a TGI [21] of over 100 µM and a TGI [22] of over 100 µM. For the same compound, the TGI [23] was over 100 µM, the TGI [24] was over 100 µM and the TGI [26] was over 100 µM. The TGI [27] was over 100 µM, the TGI [28] was over 100 µM and the TGI [29] was over 100 µM. It also gave a TGI [30] of over 100 µM, a TGI [31] of over 100 µM and a TGI [32] of over 100 µM. The TGI [57] was over 100 µM, the TGI [58] was over 100 µM and the TGI [33] was over 100 µM. The TGI [34] was over 100 µM, the TGI [37] was over 100 µM and the TGI [38] was over 100 µM. It also gave a TGI [39] of over 100 µM, a TGI [40] of over 100 µM and a TGI [41] of over 100 µM. It also gave a TGI [42] of over 100 µM, a TGI [43] of over 100 µM and a TGI [44] of over 100 µM. The TGI [45] was over 100 µM, the TGI [46] was over 100 µM and the TGI [47] was over 100 µM. It also gave a TGI [48] of over 100 µM, a TGI [49] of over 100 µM and a TGI [50] of over 100 µM. For the same compound, the TGI [59] was over 100 µM, the TGI [51] was over 100 µM and the TGI [52] was over 100 µM. The TGI [53] was over 100 µM, the TGI [54] was over 100 µM and the TGI [55] was over 100 µM. For the same compound, the TGI [56] was over 100 µM.
